The test concerns the target mGluR4 (UniProt Q14833). Briefly: mGluR4 potentiation assay (fluorescence, Ca2+ or thallium/GIRK readout; EC20 agonist). The settings on record: half maximal effective concentration for mGluR4 potentiation; species of receptor not given. It is filed as cell-based, human / rat. In a few lines:
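Human mGluR4 in CHO cells (Ca2+ dye) or rat mGluR4 with GIRK in HEK cells (thallium dye), read kinetically. Potentiation EC50 and maximum fitted from compound concentration-response at fixed agonist.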

As usually defined, the EC50 is the concentration needed to bring the measured effect to its halfway point. On to `O=C(Nc1ccc(N2C(=O)C3CCCCN3C2=S)c(Cl)c1)c1ccccn1` (stereo not shown) [Example 1.3.10], for which the EC50 is 367 nM.

Turning to `O=C(Nc1ccc(N2C(=O)C3CNCCN3C2=O)c(Cl)c1)c1ccccn1` (stereo not shown) [Example 1.3.45], the EC50 is 4200 nM.

For `O=C(Nc1ccc(N2C(=O)NC3(CCC(c4ccccc4)CC3)C2=O)c(Cl)c1)c1ccccn1` (stereo not shown) [Example 1.3.51, N-(3-chloro-4-(2,4-dioxo-8-phenyl-1,3-diazaspiro[4.5]decan-3-yl)phenyl)picolinamide], the EC50 was 2140 nM.

For `O=C(Nc1ccc(N2C(=O)C3COCCN3C2=O)c(Cl)c1)c1ccccn1` (stereo not shown) [Example 1.3.21, N-(3-Chloro-4-(1,3-dioxodihydro-1H-imidazo[5,1-c][1,4]oxazin-2(3H,8H,8aH)-yl)phenyl)picolinamide], the EC50 came out at 2180 nM.

Values taken from patent US8779157B2, “MGLUR4 allosteric potentiators, compositions, and methods of treating neurological dysfunction” (Vanderbilt University, priority 2009, dated 2014).
